Data taken from article PMC3025038 (Organic & biomolecular chemistry, 2009).

Columns and labels:
[1] = mice; liver, spleen, kidney bone marrow, or brain tissue; cited from earlier work
KOP receptors [2] = molecular target: T1, KOP receptors (Homo sapiens, UniProt P41145); assay type: binding
KOP receptors [3] = molecular target: T1, KOP receptors; test: biochemical; assay type: biochemical; settings: for Emax: read-out: KOP Emax

T1 sequence (P41145 whole entry): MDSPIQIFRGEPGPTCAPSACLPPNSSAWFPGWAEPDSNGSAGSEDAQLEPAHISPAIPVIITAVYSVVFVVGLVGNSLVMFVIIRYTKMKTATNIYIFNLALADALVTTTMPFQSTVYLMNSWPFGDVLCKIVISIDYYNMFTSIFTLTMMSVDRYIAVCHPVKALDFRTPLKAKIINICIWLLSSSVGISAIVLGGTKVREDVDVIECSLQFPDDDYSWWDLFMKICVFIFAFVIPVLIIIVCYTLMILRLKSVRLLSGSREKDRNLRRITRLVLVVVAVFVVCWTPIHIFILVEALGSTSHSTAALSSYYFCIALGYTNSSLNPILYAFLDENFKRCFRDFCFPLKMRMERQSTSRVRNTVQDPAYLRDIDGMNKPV

Row | SMILES | histological differences versus control animals [1] | fold increase in affinity for KOP receptors (KOP receptors [2]) [fold] | fold less active than 1 as agonists (KOP receptors [3]) | functional character at KOPs (in words) (KOP receptors [3]) | Emax (KOP receptors [3]) [%]
1 | COC(=O)[C@@H]1C[C@H](OC(C)=O)C(=O)[C@H]2[C@@]1(C)CC[C@H]1C(=O)O[C@H](c3ccoc3)C[C@]21C [Compound 1, salvinorin A] | no histological differences |  |  |  | 
2 | COC(=O)[C@@H]1C[C@H](OC(C)=O)C(=O)[C@H]2[C@@]1(C)CC[C@H]1C(=O)O[C@H](C(=O)N3CCCCC3)C[C@]21C [Compound 21, (2S,4aR,6aR,7R,9S,10aS,10bR)-methyl 9-acetoxy-6a,10b-dimethyl-4,10-dioxo-2-(piperidine-1-carbonyl)dodecahydro-1H-benzo[f]isochromene-7-carboxylate] |  | 9 | approximately 100 fold | selective partial agonists | 85 ± 13
3 | COC(=O)[C@@H]1C[C@H](OC(C)=O)C(=O)[C@H]2[C@@]1(C)CC[C@H]1C(=O)O[C@H](C(=O)N3CCSCC3)C[C@]21C [Compound 23, (2S,4aR,6aR,7R,9S,10aS,10bR)-methyl 9-acetoxy-6a,10b-dimethyl-4,10-dioxo-2-(thiomorpholine-4-carbonyl)dodecahydro-1H-benzo[f]isochromene-7-carboxylate] |  |  | approximately 100 fold | selective partial agonists | 57 ± 6
